# Measured values from patent US6949522B2, “β-2′- or 3′-halonucleosides” (Pharmasset, Inc., priority 2001, dated 2005).
# pIC50: −log10 of the molar value. Like-named read-outs stand apart in the source and are kept apart here.
# How the values were obtained:
# HIV-1M184V = experiment: Antiviral activity against lamivudine-resistant (HIV-1M184V) mutant strain in human PBM cells; format: cell-based; details: for EC90: read-out: M184V (EC90)
# Description: (§1) Human peripheral blood mononuclear (PBM) cells (obtained from Atlanta Red Cross) were isolated by Ficoll-Hypaque discontinuous gradient centrifugation from healthy seronegative donors. Cells were stimulated with phytohemagglutinin A (Difco, Sparks, Md.) for 2-3 days prior to use. HIV-1LAI obtained from the Centers for Disease Control and Prevention (Atlanta, Ga.) was used as the standard reference virus for the antiviral assays. The molecular infetious clones HIV-1xxBru and HIV-1M184Vpin were obtained from Dr. John Mellors (University of Pittsburgh). Infections were done in bulk for one hour, either with 100 TCID50/1×10^7 cells for a flask (T25) assay or with 200 TCID50/6×10^5 cells/well for a 24 well plate assay. Cells were added to a plate or flask containing a ten-fold serial dilution of the test compound. Assay medium was RPMI-1640 supplemented with heat inactivated 16% fetal bovine serum, 1.6 mM L-glutamine, 80 IU/ml penicillin, 80 μg/ml streptomycin, 0.0008% DEAE-Dextran, 0.045% sodium bicarbonate, and 26 IU/ml recombinant interleukin-2 (Chiron Corp, Emeryville, Calif.). […] Untreated and uninfected PBM cells were grown in parallel at equivalent cell concentrations as controls. The cell cultures were maintained in a humidified 5% CO2-air at 37° C. for 5 days and supernatants were collected for reverse transcriptase (RT) activity.
# (§2) Supernatants were centrifuged at 12,000 rpm for 2 hours to pellet the virus. The pellet was solubilized with vortexing in 100 μl virus solubilization buffer (VSB) containing 0.5% Triton X-100, 0.8 M NaCl, 0.5 mM phenylmethylsulfonyl fluoride, 20% glycerol, and 0.05 M Tris, pH 7.8. Ten μL of each sample were added to 75 μL RT reaction mixture (0.06 M Tris, pH 7.8, 0.012 M MgCl2, 0.006 M dithiothreitol, 0.006 mg/ml poly (rA)n, oligo (dT)12-18, 96 μg/ml dATP, and 1 μM of 0.08 mCi/ml ^3H-thymidine triphosphate (Moravek Biochemicals, Brea, Calif.) and incubated at 37° C. for 2 hours. The reaction was stopped by the addition of 100 μL 10% trichloroacetic acid containing 0.05% sodium pyrophosphate. The acid insoluble product was harvested onto filter paper using a Packard Harvester (Meriden, Conn.), and the RT activity was read on a Packard Direct Beta Counter (Meriden, Conn.). The RT results were expressed in counts per minute (CPM) per milliliter.
# A single mutation at residue 184 (M184V) in the catalytic domain of HIV-1 RT bring about a high-level of resistance to 3TC, causing the 50% inhibitory concentration of 3TC to be increased at least 1,000-fold (Schinazi, R. F.; Lloyd, Jr. R. M.; Nguyen, M. -H.; Cannon, D. L.; McMillan, A.; Ilksoy, N.; Chu, C. K.; Liotta, D. C.; Bazni, H. Z.; Mellors, J. W. Characterizatin of human immunodeficiency viruses resistant to oxthiolane-cytosine nucleosides. Antimicrob Agents Chemother. 1993, 37, 875-881; Tisdale, M.; Kemp, S. D.; Parry, N. R.; Larder, B. A. Rapid in vitro selection of human immunodeficiency virus type 1 resistant to 3′-thiacytidine inhibitors due to a mutation in the YMDD region of reverse transcnptase. Proc. Natl. Acad. Sci. USA 1993, 90, 5653-5656), contributing to the failure of anti-AIDS combination therapy. […] K. Synthesis and anti-HIV and anti-HBV activities of 2′-fluoro-2′,3′-unsaturated L-nucleosides.
# [1] = system: CEM (T-lymphoblastoid cell line); format: cell-based
# Description: (§3) The compounds were evaluated for their potential toxic effects on uninfected PHA-stimulated human PBM cells, in CEM (T-lymphoblastoid cell line obtained from American Type Culture Collection, Rockville, Md.) and Vero (African green monkey kidney) cells. PBM cells were obtained from whole blood of healthy seronegative donors (HIV-1 and hepatitis B virus) by single-step Ficoll-Hypaque discontinous gradient centrifugation. Log phase Vero, CEM and PHA-stimulated human PBM cells were seeded at a density of 5×10^3, 2.5×10^3 and 5×10^4 cells/well respectively. All of the cells were plated in 96-well cell culture plates containing ten-fold serial dilutions of the test drug. The cultures were incubated for 3, 4 and 5 days for Vero, CEM, and PBM cells, respectively in a humidified 5% CO2-air at 37° C. At the end of incubation, MTT tetrazolium dye solution (Cell titer 96®, Promega, Madison, Wis.) was added to each well and incubated overnight. The reaction was stopped with stop solubilization solution (Promega, Madison, Wis.). The plates were incubated for 5 hours to ensure that the formazan crystals were dissolved. The plates were read at a wavelength of 570 nm using an ELISA plate reader (Bio-tek instruments, Inc., Winooski, Vt., Model # EL 312e). […] Bookmark not defined.
# HIV-1xxBRU = experiment: Antiviral activity in human PBM cells, HIV-1xxBRU; format: cell-based; details: read-out: xxBRU (EC90)
# Description: as §1
# as §2, with “milliliter. […]” for “milliliter.”
# in vitro = details: human
# Description: (§4) After a three day-incubation for HepG2, or 5 days for human PBM cells, cell viability and mitochondrial activity were measured in a colorimetric assay using the MTS- or MTT dye method (Promega, Madison, Wis.).
# human PBM cells [2] = experiment: Toxicity assay (MTS/MTT dye), human PBM cells; details: read-out: Cytotoxicity PBM IC50; human PBM cells, 5 days incubation
# Description: as §4
# [3] = system: Vero (African green monkey kidney) cells; experiment: in vitro; format: cell-based
# Description: as §3
# human PBM cells [4] = experiment: in vitro; format: cell-based
# Description: as §3, with “Log phase Vero, CEM and PHA-stimulated human PBM cells were seeded at a density of 5×10^3, 2.5×10^3 and 5×10^4 cells/well respectively.” left out, “The cultures were incubated for 3, 4 and 5 days for Vero, CEM, and PBM cells, respectively in a humidified 5% CO2-air at 37° C.” left out
# [5] = Human immunodeficiency virus 1, PBMC
Structure (SMILES),EC90 (HIV-1M184V; [5]) [µM],"pIC50 ([1]; human, 4 days)",EC90 (HIV-1xxBRU; [5]) [µM],IC50 at 5 days (in vitro) [µM],"FI, fold increase (EC90 HIV-1M184V/EC90 HIV-1xxBRU) (HIV-1M184V; human PBM cells)",pIC50 (human PBM cells [2]),EC90 (HIV-1M184V; human PBM cells) [µM],pIC50 [1],pIC50 [3],EC90 (HIV-1xxBRU; human PBM cells) [µM],pIC50 (human PBM cells [4])
"Cc1cn([C@H]2C[C@H](N=[N+]=[N-])[C@@H](CO)O2)c(=O)[nH]c1=O [AZT, 3′-azido-3′-deoxythymidine, reference compound]",0.003,4.54,0.01,> 100,,,,,,,
"Nc1ccn([C@@H]2CS[C@H](CO)O2)c(=O)n1 [Compound 3TC, (−)-β-2′,3′-dideoxy-3′-thiacytidine, reference compound]",535,,0.08,> 100,"6,688",,,,,,
"Nc1ccn([C@@H]2C=C(F)[C@H](CO)O2)c(=O)n1 [Compound 10, 1-(2,3-Dideoxy-3-fluoro-β-L-glycero-pent-2-eno-furanosyl)cytosine]",,,,> 100,,,,,,,
"Nc1ccn([C@@H]2C=C(F)[C@H](CO)O2)c(=O)n1 [Compound 23, 1-(2,3-Didcoxy-3-fluoro-β-L-glycero-pent-2-eno-furanosyl)cytosine]",,,,,,4.06,,,,,
"Nc1ccn([C@@H]2S[C@H](CO)C=C2F)c(=O)n1 [Compound D-17, (−)-1-[(1S,4R)-2,3-dideoxy-2,3-didehydro-2-fluoro4-thio-β-D-ribofuranosyl]-cytosine]",,,,,25,< 4.00,~125,< 4.00,< 4.00,5,< 4.00
"Nc1nc(=O)n([C@@H]2S[C@H](CO)C=C2F)cc1F [Compound D-18, (−)-1-[(1S,4R)-2,3-dideoxy-2,3-didehydro-2-fluoro-4-thio-β-D-ribofuranosyl]-5-fluorocytosine]",,,,,,< 4.00,,< 4.00,< 4.00,,< 4.00
"Nc1ccn([C@H]2S[C@@H](CO)C=C2F)c(=O)n1 [Compound L-17, (+)-1-[(1S,4R)-2,3-dideoxy-2,3-didehydro-2-fluoro-4-thio-β-L-ribofuranosyl]-cytosine]",,,,,>100,< 4.00,> 100,< 4.00,< 4.00,1.4,< 4.00
"Nc1nc(=O)n([C@H]2S[C@@H](CO)C=C2F)cc1F [Compound L-18, (+)-1-[(1S,4R)-2,3-dideoxy-2,3-didehydro-2-fluoro-4-thio-β-L-ribofuranosyl]-5-fluoro-cytosine]",,,,,,< 4.00,,< 4.00,< 4.00,,< 4.00
